From US20230141863A1, “Small Molecule Inhibitors Targeting the Sodium Channel Tamoxifen Receptor and Uses Thereof” (Northwestern University, priority 2021, published 2023)
Read-outs that look alike come from different tables or passages of the source.

What was measured:
Assay type in all cases: cell-based, mouse
DRG action potentials = experiment: Current clamp recording of cultured DRG neuron action potentials; settings: for IC50: Mus musculus, DRG neuron, 2-4 minutes of extracellular drug treatment
Excerpt: FIG. 4. N-desmethyl tamoxifen inhibits DRG neuronal transmission. A) Exemplar action potentials recorded from an isolated DRG neuron in control and ND-Tam-treated conditions using a 1 second, 80 pA injection of current. After the experiment was complete, drug was washed out of the bath for five minutes and recovery from inhibition was retested. Consistent with previous reports, the resting membrane potential of the DRG neurons was −53.4±5 mV (Error is equal to S.D., n=109) (PMID: 8052416). B, C) The potency of ND-Tam inhibition on DRG action potential frequency and peak amplitude. Open symbols represent responses from individual cells while filled symbols represent average response per concentration. Error is equal to S.E.M. and the number of cells tested per treatment group is indicated within the parentheses. D, E) A comparison of the potency of cannabidiol (CBD) and carbamazepine (CBZ) inhibition on action potential frequency and peak amplitude. As done previously, drug concentration-INa inhibition relationships were fit to the Hill equation. Open symbols represent responses from individual cells while filled symbols represent average response per concentration. Error is equal to S.E.M. and the number of cells tested per treatment group is indicated within the parentheses.
FIG. 10. N-desmethyl tamoxifen inhibits spontaneous action potentials in sensory neurons. A) Exemplar spontaneous action potentials, recorded from a DRG neuron without injecting current, inhibited by 100 nM N-desmethyl tamoxifen. B) Morphology of a single spontaneous action potential in DRG neuron C) Inhibition of spontaneous action potential frequency by 100 nM ND-Tam (P=0.04). Open symbols represent responses from individual cells and filled symbols represent the average response. Error is equal to S.E.M. from 6 spontaneously firing DRG neurons.
DRG neurons act as a filter to electrical information from the periphery, required for the perception of pain, generated by several types of ion channels, including Navs. For that reason, the inventors compared the pharmacology of ND-Tam against cultured DRG action potentials recorded using current clamp (FIG. 4A). The inventors then compared DRG action potential frequency and amplitude before and after 2-4 minutes of extracellular drug treatment (FIG. 4A-C, FIG. 14). […] After exchanging the drug for control saline for 2 minutes, ND-Tam inhibition of action potential frequency and peak amplitude was persistent (FIG. 4A), which is consistent with the observed slow dissociation of the drug with sodium channels (FIG. 1B, D).
Dorsal root ganglia were isolated using a modified version of the previously described protocol (PMID: 26864470). All animal procedures were approved by the Institutional Animal Care and Use Committee at the Feinberg Medical School, Northwestern University. The spinal columns of 4-6-week-old […] or Nav1.8-Tomato mice (Nav1.8-Td) were removed and DRG neurons from all spinal levels were isolated for primary culture (PMID: 33827672, PMID: 31351964). The collected DRGs, containing both neuronal and non-neuronal cells, were acutely dissociated in DMEM with collagenase IV (2 mg/mL) for 30 minutes, followed by papain (25 U/mL) for 30 minutes. The cells were then triturated, filtered through a 40 μm cell strainer to remove non-dissociated cells, and washed with DMEM. […]

[1] = test system: T1, endogenous voltage-gated sodium channels expressed in murine DRG neurons; experiment: Whole cell voltage clamp of endogenous sodium currents (INa) in cultured DRG sensory neurons; settings: −60 mV holding potential, read-out: ND-Tam potency against DRG INa (IC50)
T1 construct: other: waiting for 5 minutes after removal; ND-Tam potency against DRG INa (IC50); other: DRG neurons, −60 mV holding potential; other: 3 μM ND-Tam treatment; other: DR

[2] = test system: T2, endogenous voltage-gated sodium channels expressed in murine DRG neurons; experiment: as above; settings: −40 mV holding potential, read-out: ND-Tam potency against DRG INa (IC50)
T2 construct: other: DRG neurons, −40 mV holding potential

IC50 (DRG action potentials; 80 pA of injected current, read-out: IC50 against action potential peak amplitude): 1300 nM
IC50 (DRG action potentials; elicited by 80 pA of injected current, read-out: IC50 against action potential firing frequency): 119 nM
IC50 [1]: 112 nM
IC50 [2]: 3.9 nM
Structure (SMILES): CC/C(=C(\c1ccccc1)c1ccc(OCCNC)cc1)c1ccccc1 [ND-Tam, 2-[4-[(Z)-1,2-diphenylbut-1-enyl]phenoxy]-N-methylethanamine]
potency against action potential frequency and peak amplitude compared with CBZ and CBD (in words) (DRG action potentials): more potent inhibitor of DRG action potential frequency and peak amplitude than CBZ and CBD
reduction of the frequency of spontaneous sensory neuron action potentials (DRG action potentials; 100 nM, three-minute extracellular application, n=6, P=0.04): 91%
inhibition of action potential frequency and peak amplitude after washout (in words) (DRG action potentials; after exchanging the drug for control saline for 2 minutes): persistent
